Entries after “also recorded” stand apart in the source; their conditions may differ. Where two headings read alike, the source gives them in different places.

Data set [1] deals with ARPE19 cells. In words: In vitro detection and quantification of intracellular ROS in ARPE19 cells (DCF-DA / DHE probes). In kind it is cell-based, human. The conditions noted are these: for intracellular ROS production: retinoid applied to cultured ARPE19 cells, ROS probe DCF-DA or DHE. The method, then: ARPE19 cells were cultured in Dulbecco's Modified Eagle's Medium (DMEM) (low glucose) supplemented with 10% fetal bovine serum. The ROS probes, 2′,7′-dichlorofluorescein diacetate (DCF-DA, Sigma, St. Louis, Mo.) or dihydroethidium (DHE, Invitrogen Corporation, Carlsbad, Calif.) were added after indicated pretreatments and incubated at 37° C. for 10-min before thorough washing in PBS and the ROS signals were subsequently observed at the same exposure setting under an inverted fluorescence microscope (Leica DMI 6000 B). Fluorescence quantification was performed with Metamorph imaging software (Molecular Devices, Downington, Pa.). Thresholds corresponding to fluorescent signals were set from the images and average fluorescence intensities were recorded for statistical analysis.

For data set [2], the system named is ROS generation in photoreceptors of Abca4−/−Rdh8−/− mice. Kind of data set: In vivo detection of ROS (DHE probe) in retinas of light-exposed Abca4−/−Rdh8−/− mice. Further details: species or system mouse. The conditions noted are these: for ROS production in the ONL / photoreceptors (DHE signal): Example 1, pretreatment before light 10,000 lux 30 min, retinas 3 h after illumination; for ROS generation in photoreceptors (DHE signal): Example 3, DOX 10 mg/kg, GUB 2.0 mg/kg, SQ 0.5 mg/kg ip 30 min prior to light.
Protocol: The ROS probe, DHE, at a dose of 20 mg/kg body weight was administered to Abca4^−/−Rdh8^−/− mice via intraperitoneal injection 30 min prior to light exposure. Eye cups obtained after removing the cornea, lens and vitreous body from enucleated eye globes 3 h post light illumination were fixed in 4% paraformaldehyde. Cryosections were prepared from fixed eye cups and cut at 12 am thickness for microscopic assessment of ROS signal fluorescence in the retina.
The ROS probe, DHE, at a dose of 20 mg/kg body weight in 25 μl of DMSO, was administered to Abca4^−/−Rdh8^−/− mice via intraperitoneal injection 1 h prior to light exposure. Eye cups obtained after removing the cornea, lens, and vitreous body from enucleated eye globes 3 h post light illumination were fixed in 4% paraformaldehyde. Cryosections were prepared from fixed eye cups and cut at 12-am thickness for microscopic assessment of ROS fluorescence in the retina with ImageJ software (National Institutes of Health).

The test system of data set [3] is Abca4−/−Rdh8−/− mice. Kind of data set: Bright light-induced retinal degeneration in Abca4−/−Rdh8−/− mice, OCT imaging of retinal structure. It is filed as in vivo, mouse. The conditions noted are these: for retinal / photoreceptor morphology by OCT imaging: pretreatment before light 10,000 lux 30 min, OCT 7 days after light exposure.
Data set [4] has as its system Abca4−/−Rdh8−/− mice. In words: Bright light-induced retinal degeneration in Abca4−/−Rdh8−/− mice, retinal histology and immunohistochemistry. In kind it is in vivo, mouse. The note with it: pretreatment before light 10,000 lux 30 min; 7-10 days after light exposure. The method, then:
Retinal histology and immunohistochemistry (IHC) was performed as previously described. Briefly, eye cups free of cornea, lens and vitreous body were fixed in 2% glutaraldehyde/4% paraformaldehyde and processed for Epon embedding. Sections 1 am thick were cut and stained with toluidine blue for histological examination under a light microscope. IHC analysis was performed on 12 am thick cryosections prepared from 4% paraformaldehyde-fixed eye cups. Collected cryosections were subjected to examination for rhodopsin, PNA and DAPI expression.
Retinal immunohistochemistry (IHC) was carried out as previously described. Briefly, eyes were enucleated and eye cups were made to eliminate cornea, lens and vitreous body and fixed in 4% paraformaldehyde and processed for cryosectioning. 12 am thick cryosections were collected cryosections and subjected to examination for rhodopsin, peanut agglutinin lectin (PNA) and DAPI expression.
Retinal immunohistochemistry (IHC) was performed as previously described. Briefly, eyes were enucleated and, after removal of the cornea, lens and vitreous body, eye cups were fixed in 4% paraformaldehyde and processed for cryosectioning. Twelve μm thick cryosections were cut, collected and examined for rhodopsin expression, peanut agglutinin lectin (PNA) for cone sheath and nuclear DAPI staining. […]

The test system of data set [5] is ARPE19 cells.
Data set [6] concerns Abca4−/−Rdh8−/− mice. Kind of data set: Bright light-induced retinal degeneration in Abca4−/−Rdh8−/− mice, ERG retinal function. The note with it: pretreatment before light 10,000 lux 30 min, ERG 7 days to 2 weeks after.
Data set [7] relates to Abca4−/−Rdh8−/− mice. Kind of data set: Bright light-induced retinal degeneration in Abca4−/−Rdh8−/− mice, SLO autofluorescence imaging. It is filed as in vivo, mouse. The note with it: pretreatment before light 10,000 lux 30 min; SLO 8-9 days after light exposure. The method, then:
SLO (Heidelberg Engineering, Heidelberg, Germany) was carried out for whole fundus imaging of mouse retinas. Mice were anesthetized by intraperitoneal injection of anesthetic cocktail indicated above, which was followed by pupil dilation using 1% tropicamide prior to SLO imaging under autofluorescence mode.
(§1) SLO (Heidelberg Engineering) was carried out for in vivo whole fundus imaging of mouse retinas. […] Numbers of autofluorescent spots were counted and subjected to statistical analyses as described below.
SLO (Heidelberg Engineering) was carried out for whole fundus imaging of mouse retinas in vivo. Mice were anesthetized, and their pupils were dilated as described above. SLO images were then acquired in the autofluorescence mode.

In data set [8] the test system is BALB/c mice. In words: Light-induced retinal degeneration in BALB/c mice, retinal morphology (OCT, histology, IHC). It is filed as in vivo, mouse. The conditions noted are these: ip pretreatment 30 min before 10,000 lux, 7 days after light.
Data set [9] has as its system BALB/c mice. In words: Light-induced retinal degeneration in BALB/c mice, SLO autofluorescence imaging. It is filed as in vivo, mouse. The conditions noted are these: DOX 10, GUB 2.0, SQ 0.5 mg/kg, 7 days after light. How it is done: as §1
These drugs were administered to 4-week-old BALB/c mice by intraperitoneal injection 30 min prior to white light exposure at 10,000 lux for 1 h. Retinal morphology was assessed 7 days after light exposure by OCT imaging and histological examination.

The nature of data set [10]: Quantification of selected drugs in mouse serum and eye by LC-MS. The note with it: for Eye ± SD / concentration at 30 min: 30 min after a single ip dose: DOX 10, GUB 2, SQ 0.5 mg per kilogram; for Eye ± SD: mice perfused with PBS; for concentration at 30 min: C57BL/6J, mouse, serum, intraperitoneal, read-out: Serum ± SD; for amount in eye compared with level in 0.1 mL of serum: eye volume taken as about 0.1 mL. In kind it is in vivo, C57BL/6J WT mice. How it is done:
C57BL/6J WT mice at 6 weeks of age (Jackson Laboratory) were treated with DOX, GUB, or SQ at a single dose of 10, 2, and 0.5 mg per kilogram, respectively. The compound was dissolved in 50% DMSO in PBS (137 mM NaCl, 2.7 mM KCl, 0.67 mM […]). Next, to precipitate excess proteins, 0.3 ml of methanol was added to both the eye homogenate and 0.1 ml of serum. Samples were vortexed for 30 s followed by centrifugation for 15 min at 16,000 g. Clear supernatants were collected and used directly for LC-MS analysis. 2HPO4/KH2PO4, pH 7.4) and administrated by intraperitoneal injection. Thirty minutes later the mice were anesthetized. Blood samples were collected using the technique of cardiac puncture and subsequently centrifuged (5 min, 16,000 g) to collect serum. Prior to harvesting eyes, mice were intracardially perfused with PBS to minimalize blood contamination. Eye balls were immediately homogenized in 0.1 ml of PBS. The homogenate and serum samples were spiked with 100 pmols of internal standard (IS) (parazosin—2-[4-(2-furoyl)piperazin-1-yl]-6,7-dimethoxyquinazolin-4-amine (Sigma Aldrich) or clenbuterol—(RS)-1-(4-Amino-3,5-dichlorophenyl)-2-(tert-butylamino)ethanol (Sigma Aldrich)) for DOX, GUB or SQ quantification, respectively.
Mass spectrometry (MS) based detection and quantification of DOX, GUB, and SQ was performed with a L×Q linear ion trap mass spectrometer (Thermo Scientific) equipped with an electrospray ionization (ESI) interface and coupled to Agilent 1100 HPLC (Agilent Technologies). Separation of drugs and the internal standards was achieved on a reverse phase C18 Phenomenex HPLC column (250×4.60 mm; 5 μm) by a linear gradient of to 100% acetonitrile in water within 15 min at flow rate of 0.5 ml/min. All solvents contained 0.1% formic acid (v/v). The HPLC effluent was sprayed into the MS via an ESI probe operated in the positive ionization mode. Parameters of ionization and detection were tuned with synthetic standards for the drugs to achieve the highest possible sensitivity. Dox and parazosin (internal standard) were detected by selected reaction monitoring (SRM) using m/z 452.2→344.2 and 384.2→247.1 transitions whereas GUB, SQ and their corresponding IS, clenbuterol, was by fragmentation at m/z 231.1→214.0, 206.1→136.0, and 277.1→259.1, respectively. The elution times for DOX, GUB, and SQ were ˜12.8, 12.3, and 10.8 min, respectively. Both internal standards eluted at 12.0 min (FIG. 34). Calibration curves were calculated based on the linear relationship between ratios of SRM ion intensity peak area corresponding to the selected drug and the IS vs. molar ratios of the compounds in the range of 20-500 pmol (FIG. 34H).

The subject of data set [11] is visual pigment regeneration. In words: Effect on chromophore regeneration (ERG responses and 11-cis-retinal levels after bleaching). It is filed as in vivo. The note with it: SQ treatment. An excerpt: It is also worth noting that rhodopsin could be a central player in light-induced retinal degeneration, and that reduced amounts of rhodopsin protect the retina from light-induced degeneration. Therefore we examined the potential impact of the AC inhibitor SQ on chromophore regeneration given that AC is the central player in our newly identified GPCR signaling implicated in light-induced retinopathy (FIG. 1). […] Therefore, the possibility of an acute effect of pharmacological compounds on phototransduction could be ruled out.

The test system of data set [12] is Abca4−/−Rdh8−/− mice. The note with it: mouse, in vivo.
[13] abbreviates: retinoid alone, at the doses examined.

On to `COc1cc(C(C)=O)ccc1O` [APO, Apocynin], for which, in data set [1] (APO applied to ARPE19 cells together with atRAL), the “atRAL-induced intracellular ROS generation” value is on record as “inhibited atRAL-induced intracellular ROS generation”. Further, the “ROS production in the ONL / photoreceptors (DHE signal)” value in data set [2] is “substantially decreased ROS production”. Further, in [3], the “retinal / photoreceptor morphology by OCT imaging” value (from here on “retinal / photoreceptor morphology”) is listed as “well-preserved retinal morphology”. For the same compound, the “retinal histology / immunohistochemistry (rhodopsin, PNA, DAPI; ONL)” value (“retinal histology / immunohistochemistry” for short) in data set [4] is “nearly intact retinal morphology”. The ARPE19 cell survival entry in data set [5] (APO together with atRAL) is “improved ARPE19 cell survival”. Besides, the “retinal function by ERG (a-wave and b-wave amplitudes)” value (“retinal function by ERG” below) in [6] was “protective effect”.
Consider `Nc1ncnc2c1ncn2C1CCCO1` (stereo not shown) [SQ 22536], for which the “ROS generation in photoreceptors (DHE signal)” value in data set [2] is listed as “decreased”. Moreover, the “retinal / photoreceptor morphology” value in data set [3] is “protected retinas from light-induced degeneration in a dose-dependent manner”. In addition, the “retinal histology / immunohistochemistry” value in data set [4] is reported as “substantially preserved photoreceptor morphology”. Besides, in data set [7], the “retinal autofluorescence spots by SLO imaging” value is listed as “dose-dependent effect”. Also, in data set [8], the “retinal morphology / ONL (OCT, histology)” value was “retinal morphology of drug-treated mice was maintained”. In [9], the “autofluorescent spots by SLO” value is listed as “prevented”. In addition, in data set [10], the “Eye ± SD” value came to 5.6 ± 2.2 pmol/eye, the concentration at 30 min stood at 193 ± 55 nM and the “amount in eye compared with level in 0.1 mL of serum” value is reported as 5 times lower. In addition, the “ERG responses and 11-cis-retinal levels after bleaching” value in data set [11] is recorded as “no significant changes”. Further, in data set [6] (listed as SQ), the “retinal function by ERG” value was “substantial preservation of the scotopic ERG response; also recorded: substantial preservation of this response”.
In the case of `N=C(N)N/N=C/c1c(Cl)cccc1Cl` [Guanbenz], the “ROS generation in photoreceptors (DHE signal)” value in [2] is reported as “decreased”. Moreover, the “retinal / photoreceptor morphology” value in data set [3] (listed as GUB) was “significantly prevented; also recorded: dose-dependent fashion”. In data set [3] (protection from bright light-induced degeneration, dose-response, FIG. 25A/B), the “half maximal effective (protective) dose” value worked out at 0.3 mg/kg. Besides, in data set [4], the “retinal histology / immunohistochemistry” value is given as “substantially preserved photoreceptor morphology”. Further, the “retinal autofluorescence spots by SLO imaging” value in data set [7] is “markedly less autofluorescence spots”. The “retinal morphology / ONL (OCT, histology)” value in data set [8] was “retinal morphology of drug-treated mice was maintained”. Also, the “autofluorescent spots by SLO” value in data set [9] is listed as “prevented”. Also, in data set [10], the “Eye ± SD” value was 13.1 ± 4.7 pmol/eye and the concentration at 30 min was 70 ± 18 nM. Moreover, the “amount in eye compared with level in 0.1 mL of serum” value in data set [10] (listed as GUB) is reported as “comparable”.
As for `CC1=C(/C=C/C(C)=C/C=C/C(C)=C/c2cc(/C=C/C=C(C)/C=C/C3=C(C)CCCC3(C)C)cc[n+]2CCO)C(C)(C)CCC1` [A2E, di-retinoid-pyridinium-ethanolamine], the “intracellular ROS production” value in data set [1] is “did not induce overproduction of intracellular ROS”. In addition, the cell death result in data set [5] (setting [13]) is recorded as “neither atROL, atRA nor A2E induced cell death”.
As for `NCCOB(c1ccccc1)c1ccccc1` [2-APB, 2-aminoethoxydiphenyl borate], the “ROS production in the ONL / photoreceptors (DHE signal)” value in [2] is listed as “reduced ROS production”. The “retinal histology / immunohistochemistry” value in data set [4] is listed as “significantly preserved retinal morphology”. Moreover, the “retinal function by ERG” value in data set [12] is “protective effect”.
With `CC1=C(/C=C/C(C)=C/C=C/C(C)=C/C(=O)O)C(C)(C)CCC1` [atRA, all-trans-retinoic acid], in data set [1], the “intracellular ROS production” value was “did not induce overproduction of intracellular ROS”. Further, in data set [5] (human, 24 h), the cell death entry is recorded as “neither atROL, atRA nor A2E induced cell death”.
As to `CC1=C(/C=C/C(C)=C/C=C/C(C)=C/C=O)C(C)(C)CCC1` [atRAL, all-trans-retinal], in [1], the “intracellular ROS production” value is “significantly elevated intracellular ROS production”.
Regarding `CC1=C(/C=C/C(C)=C/C=C/C(C)=C/CO)C(C)(C)CCC1` [atROL, all-trans-retinol], the “intracellular ROS production” value in data set [1] is on record as “did not induce overproduction of intracellular ROS”. The cell death entry in data set [5] (setting [13]) is “neither atROL, atRA nor A2E induced cell death”.
